Laboratory results as given in ChEMBL document CHEMBL2073780, “The antiprogestatin drug RU 486 potentiates doxorubicin cytotoxicity in multidrug resistant cells through inhibition of P-glycoprotein function” (FEBS Lett, 1994).

Key:
Assay type in all cases: functional, cell-based
[1] = biological target: Multidrug resistance protein 1a (Rattus norvegicus) (UniProt Q6PSM0); assay: TP_TRANSPORTER: increase in Doxorubicin intracellular accumulation (Doxorubicin: 10 ug/mL, RU486: 10 uM) in RHC1 cells
Sequence of Multidrug resistance protein 1a (Rattus norvegicus) (Q6PSM0 as listed by the source): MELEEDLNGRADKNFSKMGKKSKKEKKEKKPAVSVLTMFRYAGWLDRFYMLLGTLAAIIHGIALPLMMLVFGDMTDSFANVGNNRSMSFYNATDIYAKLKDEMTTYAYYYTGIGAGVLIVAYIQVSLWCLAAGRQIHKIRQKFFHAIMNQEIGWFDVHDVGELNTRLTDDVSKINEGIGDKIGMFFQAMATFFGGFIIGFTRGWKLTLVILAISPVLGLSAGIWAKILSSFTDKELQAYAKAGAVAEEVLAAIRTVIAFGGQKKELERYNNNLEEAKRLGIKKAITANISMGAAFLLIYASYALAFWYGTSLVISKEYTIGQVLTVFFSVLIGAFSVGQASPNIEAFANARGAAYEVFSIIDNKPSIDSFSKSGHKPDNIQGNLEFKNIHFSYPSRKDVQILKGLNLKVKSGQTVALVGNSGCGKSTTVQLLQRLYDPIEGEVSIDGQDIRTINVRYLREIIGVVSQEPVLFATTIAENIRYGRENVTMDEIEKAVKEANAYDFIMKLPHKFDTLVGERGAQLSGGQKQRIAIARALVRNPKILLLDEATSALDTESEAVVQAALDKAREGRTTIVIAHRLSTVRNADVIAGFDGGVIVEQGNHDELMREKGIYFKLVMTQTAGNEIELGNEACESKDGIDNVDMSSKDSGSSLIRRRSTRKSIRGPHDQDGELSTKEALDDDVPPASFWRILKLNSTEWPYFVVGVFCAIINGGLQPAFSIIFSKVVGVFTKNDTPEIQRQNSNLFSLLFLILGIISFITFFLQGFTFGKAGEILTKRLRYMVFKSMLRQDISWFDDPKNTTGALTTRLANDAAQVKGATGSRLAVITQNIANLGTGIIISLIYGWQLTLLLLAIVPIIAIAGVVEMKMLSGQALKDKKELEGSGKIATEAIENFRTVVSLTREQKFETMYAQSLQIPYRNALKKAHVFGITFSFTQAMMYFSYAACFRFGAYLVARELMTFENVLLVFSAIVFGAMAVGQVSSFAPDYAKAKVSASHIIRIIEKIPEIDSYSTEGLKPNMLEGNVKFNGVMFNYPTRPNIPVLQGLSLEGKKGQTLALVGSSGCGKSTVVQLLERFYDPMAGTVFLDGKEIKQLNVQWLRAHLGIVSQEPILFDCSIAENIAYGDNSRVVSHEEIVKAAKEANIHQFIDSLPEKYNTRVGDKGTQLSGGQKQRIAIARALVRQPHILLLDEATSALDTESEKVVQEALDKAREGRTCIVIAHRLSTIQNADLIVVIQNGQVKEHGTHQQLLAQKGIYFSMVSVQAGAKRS

[2] = biological target: ATP-dependent translocase ABCB1 (Homo sapiens, UniProt P08183); assay: TP_TRANSPORTER: increase in Doxorubicin intracellular accumulation (Doxorubicin: 10 ug/mL, RU486: 10 uM) in K562 R7 cells; conditions: k562/r7, 10 µM
Sequence of ATP-dependent translocase ABCB1 (P08183 whole entry): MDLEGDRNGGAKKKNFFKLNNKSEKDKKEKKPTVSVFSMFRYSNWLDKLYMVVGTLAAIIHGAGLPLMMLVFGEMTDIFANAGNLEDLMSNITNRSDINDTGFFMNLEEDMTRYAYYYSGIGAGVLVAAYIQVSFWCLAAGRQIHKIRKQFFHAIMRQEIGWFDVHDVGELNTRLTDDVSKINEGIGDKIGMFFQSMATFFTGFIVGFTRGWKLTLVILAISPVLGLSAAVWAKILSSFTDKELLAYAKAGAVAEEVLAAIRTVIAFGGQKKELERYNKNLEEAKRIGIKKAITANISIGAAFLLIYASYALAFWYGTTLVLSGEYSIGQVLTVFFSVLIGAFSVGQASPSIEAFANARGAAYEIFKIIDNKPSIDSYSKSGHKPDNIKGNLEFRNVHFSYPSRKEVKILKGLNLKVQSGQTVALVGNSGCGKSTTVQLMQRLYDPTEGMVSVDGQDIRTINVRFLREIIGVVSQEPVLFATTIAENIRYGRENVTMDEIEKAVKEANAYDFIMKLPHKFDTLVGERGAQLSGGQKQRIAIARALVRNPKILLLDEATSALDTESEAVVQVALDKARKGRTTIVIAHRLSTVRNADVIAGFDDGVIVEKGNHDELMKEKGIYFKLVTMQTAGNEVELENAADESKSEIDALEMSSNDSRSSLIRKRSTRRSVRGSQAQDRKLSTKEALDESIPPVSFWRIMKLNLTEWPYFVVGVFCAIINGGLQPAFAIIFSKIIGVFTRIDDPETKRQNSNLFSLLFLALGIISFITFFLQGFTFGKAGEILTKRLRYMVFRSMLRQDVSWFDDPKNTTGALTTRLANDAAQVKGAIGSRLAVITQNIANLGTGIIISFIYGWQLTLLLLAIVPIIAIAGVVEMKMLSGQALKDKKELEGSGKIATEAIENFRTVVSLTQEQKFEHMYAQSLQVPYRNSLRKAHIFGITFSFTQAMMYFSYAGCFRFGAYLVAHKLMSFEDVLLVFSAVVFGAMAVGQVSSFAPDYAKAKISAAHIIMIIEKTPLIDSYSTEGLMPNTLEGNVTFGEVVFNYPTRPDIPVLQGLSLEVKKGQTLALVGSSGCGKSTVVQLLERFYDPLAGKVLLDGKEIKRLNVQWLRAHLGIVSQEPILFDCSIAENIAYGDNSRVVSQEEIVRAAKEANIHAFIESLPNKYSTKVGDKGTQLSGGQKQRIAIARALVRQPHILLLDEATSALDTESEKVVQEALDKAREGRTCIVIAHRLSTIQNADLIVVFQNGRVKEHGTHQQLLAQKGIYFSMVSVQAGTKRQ

[3] = biological target: Multidrug resistance protein 1a (Rattus norvegicus) (UniProt Q6PSM0); assay: TP_TRANSPORTER: increase in Doxorubicin intracellular accumulation (Doxorubicin: 10 ug/mL, Progesterone: 10 uM) in RHC1 cells

SMILES | Activity [1] | Activity [2] | Activity [3]
CC#C[C@]1(O)CC[C@H]2[C@@H]3CCC4=CC(=O)CCC4=C3[C@@H](c3ccc(N(C)C)cc3)C[C@@]21C [MIFEPRISTONE] | inhibitor [+] | inhibitor [+] | –
CC(=O)[C@H]1CC[C@H]2[C@@H]3CCC4=CC(=O)CC[C@]4(C)[C@H]3CC[C@]12C | – | – | inhibitor [+]
